Source: PubChem BioAssay (NCI)
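In this assay, cells in 96-well plates receive the compound at five concentrations for 48 hours. Endpoints are linearly interpolated between the surrounding concentrations. GI50 is the concentration that inhibits growth by half. TGI: concentration producing complete growth inhibition.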

How the values were obtained:
Assay in all cases: inhibition of tumour cell growth, NCI panel, 48 h
SK-MEL-28 melanoma = test system: SK-MEL-28 melanoma
OVCAR-3 ovarian = test system: OVCAR-3 ovarian
LXFL 529 NSCLC = test system: LXFL 529 NSCLC
COLO 205 colon = test system: COLO 205 colon
SR leukemia = test system: SR leukemia
IGROV1 ovarian = test system: IGROV1 ovarian
SNB-78 CNS = test system: SNB-78 CNS
SN12C renal = test system: SN12C renal
DMS 114 small cell lung = test system: DMS 114 small cell lung
HS 578T breast = test system: HS 578T breast

Row | Compound | TGI (SK-MEL-28 melanoma) | TGI (OVCAR-3 ovarian) | TGI (LXFL 529 NSCLC) | TGI (COLO 205 colon) | TGI (SR leukemia) | TGI (IGROV1 ovarian) | TGI (SNB-78 CNS) | TGI (SN12C renal) | TGI (DMS 114 small cell lung) | GI50 (SK-MEL-28 melanoma) | GI50 (OVCAR-3 ovarian) | GI50 (LXFL 529 NSCLC) | GI50 (COLO 205 colon) | GI50 (IGROV1 ovarian) | GI50 (SN12C renal) | GI50 (HS 578T breast) | TGI (HS 578T breast) | GI50 (SR leukemia)
1 | CCOC(=N)CC(=O)Nc1cccc(C)c1C | > 100 µM | > 100 µM | > 100 µM | > 100 µM | > 100 µM | > 100 µM | > 100 µM | > 100 µM |  |  |  |  |  |  |  |  |  | 
2 | COC(=O)/C(C)=C/[N+](=O)[O-] |  | 29.6 µM | 27.9 µM | 16.6 µM |  | 44.1 µM | 49.8 µM | 41 µM | 35.3 µM |  |  |  |  |  |  |  |  | 
3 | O=S1OC2(c3ccccc3-c3ccccc32)c2ccccc21 (centres undefined) | > 100 µM | > 100 µM | > 100 µM | > 100 µM | > 100 µM | > 100 µM |  | > 100 µM | > 100 µM |  |  |  |  |  |  |  |  | 
4 | C1C[OH+]CCNCC[OH+]CC[OH+]CCN1.[Cl-].[Pt+4] | > 100 µM | > 100 µM | > 100 µM | > 100 µM |  | > 100 µM |  | > 100 µM |  | > 100 µM | > 100 µM | > 100 µM | > 100 µM | > 100 µM | > 100 µM |  |  | 
5 | O=C(Nc1ccc(CO)cc1)c1coc2ccccc2c1=O | > 100 µM | > 100 µM |  | > 100 µM | > 100 µM | > 100 µM |  | > 100 µM |  | > 100 µM | > 100 µM |  | > 100 µM | > 100 µM | > 100 µM | 16.2 µM | 78.1 µM | > 100 µM
6 | O=C(Nc1ccc(-c2ccccc2)cc1)C1CCN(S(=O)(=O)c2ccccc2Cl)CC1 | > 100 µM | > 100 µM |  | > 100 µM | > 100 µM | > 100 µM |  | 90.2 µM |  | > 100 µM | 41.9 µM |  | > 100 µM | 21.4 µM | 26.9 µM | 12.6 µM | 71.4 µM | 36.2 µM
7 | CCn1c(CO)nn(-c2cc(O[C@@H](C)C(F)(F)F)c(C(=O)Nc3c(F)cccc3Cl)cc2F)c1=O | > 100 µM | > 100 µM |  | > 100 µM | > 43.1 µM | > 100 µM |  | > 100 µM |  | > 24.4 µM | 0.0304 µM |  | < 0.01 µM | < 0.0113 µM | 0.081 µM | > 22.3 µM | > 100 µM | < 0.01 µM
8 | N=C(N)SCc1cccc(-c2nc3ccccc3c(=O)o2)c1 | > 100 µM | > 100 µM |  | > 100 µM | > 100 µM | > 100 µM |  | > 100 µM |  |  |  |  |  |  |  |  | > 100 µM | 
